In paper PMC8115619, “Generation of a chemical genetic model for JAK3” (Scientific Reports, 2021):
Entries after “also recorded” stand apart in the source; their conditions may differ.

What was measured:
RSK1 = RSK1 (Homo sapiens, UniProt Q15418); test: Selectivity screen RSK1; type: biochemical; settings: 1 µM inhibitor, mean
Procedure: (§1) For the in vitro kinase assay, JAK3 (5–20 mU diluted in 50 mM Tris pH 7.5, 0.1 mM EGTA, 0.05% β-mercaptoethanol, 1 mg/ml BSA) was assayed against PDKtide ([…]) in a final volume of 25.5 µl containing 50 mM Tris pH 7.5, 0.1 mM EGTA, 0.05% β-mercaptoethanol, 100 µM substrate peptide, 10 mM magnesium acetate and 0.02 mM [33P-γ-ATP] (50–1000 cpm/pmole) and incubated for 30 min at room temperature. Assays were started by the addition of the ATP and stopped by addition of 5 µl of 0.5 M (3%) orthophosphoric acid and then harvested onto P81 Unifilter plates with a wash buffer of 50 mM orthophosphoric acid. To determine the Km for ATP, assays were run using 1, 5, 10, 20, 50, 100, 200, 400, 500 μM ATP and Km derived by non-linear regression fitting to the Michaelis–Menten equation v = Vmax[S]/(Km + [S]). IC50 values for inhibitors via non-linear regression using a parameter model: Y = Bottom + (Top–Bottom)/(1 + (IC50/X)^HillSlope). Non-linear regression was carried out in Prism (version 8). In vitro selectivity screen was carried out as described previously.

ULK2 = ULK2 (Homo sapiens, UniProt Q8IYT8); test: Selectivity screen ULK2; type: biochemical; settings: 1 µM inhibitor, mean
Procedure: as §1

PKCz = PKCz (Homo sapiens, UniProt Q05513); test: Selectivity screen PKCz; type: biochemical; settings: 1 µM inhibitor, mean
Procedure: as §1

PIM3 = PIM3 (Homo sapiens, UniProt Q86V86); test: Selectivity screen PIM3; type: biochemical; settings: 1 µM inhibitor, mean
Procedure: as §1

CLK2 = CLK2 (Homo sapiens, UniProt P49760); test: Selectivity screen CLK2; type: biochemical; settings: 1 µM inhibitor, mean
Procedure: as §1

PKBb = PKBb (Homo sapiens, UniProt P31751); test: Selectivity screen PKBb; type: biochemical; settings: 1 µM inhibitor, mean; read-out: activity remaining in the presence of the inhibitor: PKBb
Procedure: as §1

PINK = PINK (Tribolium castaneum, UniProt D6WMX4); test: Selectivity screen PINK; type: biochemical; settings: 1 µM inhibitor, mean
Procedure: as §1

HIPK1 = HIPK1 (Homo sapiens, UniProt Q86Z02); test: Selectivity screen HIPK1; type: biochemical; settings: 1 µM inhibitor, mean
Procedure: as §1

ERK1 = ERK1 (Homo sapiens, UniProt P27361); test: Selectivity screen ERK1; type: biochemical; settings: 1 µM inhibitor, mean
Procedure: as §1

TTBK2 = TTBK2 (Homo sapiens, UniProt Q6IQ55); test: Selectivity screen TTBK2; type: biochemical; settings: 1 µM inhibitor, mean
Procedure: as §1

MAPKAP-K2 = MAPKAP-K2 (Homo sapiens, UniProt P49137); test: Selectivity screen MAPKAP-K2; type: biochemical; settings: 1 µM inhibitor, mean
Procedure: as §1

[1] = test system: IL-4 induced STAT6 phosphorylation in spleenocytes; test: IL-4 induced STAT6 phosphorylation in spleenocytes; type: cell-based, mouse; settings: wild type mice, inhibitor 1 h, 10 ng/ml IL-4 30 min
Procedure: (A) Single cell suspensions were prepared from the spleens of wild type mice. […] Cells were then stimulated with 10 ng/ml IL-4 for 30 min and the levels of phosphorylated STAT6 determined by immunoblotting. (B) As (A) except cells were stimulated with 10 ng/ml IL-2 and the levels of phosphorylated STAT5 determined. (C) CD8 T cells were expanded from the lymph nodes of wild type and JAK3 Cys905Ser knockin mice. Cells were rested in the absence of IL-2 for 60 min then incubated with the indicated concentrations of PF-06651600 for a further 30 min before stimulation with 10 ng/ml of IL-2 for 30 min. The levels of phosphorylated STAT5 and total ERK1/2 were then determined.
(§2) Cells were lysed directly into SDS sample buffer and aliquots run on 10% polyacrylamide gels using standard methods. Proteins were transferred onto nitrocellulose membranes, and specific proteins were detected by immunoblotting. […] Bands were detected using Clarity ECL reagents from BioRad and imaged on a Licor Odyssey Fc system. Quantification was carried out using Licor Image Studio software. After correction for the ERK1/2 levels to account for loading differences, percentage inhibition was calculated relative to the IL-4 stimulated condition. IC50 values were calculated using the same methods as for the in vitro IC50 values.

PDGFRA = PDGFRA (Homo sapiens, UniProt P16234); test: Selectivity screen PDGFRA; type: biochemical; settings: 1 µM inhibitor, mean
Procedure: as §1

MLK3 = MLK3 (Homo sapiens, UniProt Q16584); test: Selectivity screen MLK3; type: biochemical; settings: 1 µM inhibitor, mean
Procedure: as §1

RSK2 = RSK2 (Homo sapiens, UniProt P51812); test: Selectivity screen RSK2; type: biochemical; settings: 1 µM inhibitor, mean
Procedure: as §1

TrkA = TrkA (Homo sapiens, UniProt P04629); test: Selectivity screen TrkA; type: biochemical; settings: 1 µM inhibitor, mean
Procedure: as §1

HIPK2 = HIPK2 (Homo sapiens, UniProt Q9H2X6); test: Selectivity screen HIPK2; type: biochemical; settings: 1 µM inhibitor, mean
Procedure: as §1

[2] = test system: IL-10 induced STAT3 phosphorylation in BMDMs; test: IL-10 induced STAT3 phosphorylation in macrophages; type: cell-based, mouse; settings: wild type BMDMs, inhibitor 2 h, 10 ng/ml IL-10
Procedure: (A) BMDMs were isolated from wild type mice. Cells were incubated with the indicated inhibitors in μM for 2 h before stimulation with 10 ng/ml IL-4 for 30 min. The levels of phosphorylated STAT6 were then determined by immunoblotting. (B) As (A) except cells were stimulated 10 ng/ml GM-CSF and the levels of phosphorylated STAT5 determined. (C) As (A) except cells were stimulated 10 ng/ml IL-10 and the levels of phosphorylated STAT3 determined. (D) As (A) except cells were stimulated 10 ng/ml IFNβ and the levels of phosphorylated STAT1 determined. For A–D, levels of ERK1/2 were determined as a loading control.
Bone marrow derived macrophages (BMDMs) were cultured as described. Briefly, bone marrow was flushed in PBS from the femurs and tibias of mice. Cells were cultured on bacterial grade plastic for 7 days at 37 °C, 5% CO2. Cells were then detached using Versene (Gibco), re-plated on tissue culture plastic in BMDM media (in DMEM supplemented with 10% heat inactivated FBS (Labtech), 2 mM L-glutamine, 100 U/ml penicillin G, 100 μg/ml streptomycin and 0.25 μg/ml amphotericin, 5 ng/ml M-CSF) and used within 48 h. Where indicated cells were stimulated with 10 ng/ml IL-4, 10 ng/ml GM-CSF, 10 ng/ml IL-10 or 10 ng/ml IFNβ. All cytokines were from PeproTech.
as §2, with “immunoblotting. Antibodies against tyrosine phosphorylated STATs were from Cell Signaling Technology (phospho-STAT1 #9167, phospho-STAT3 #9131, phospho-STAT5 #4322 and phospho-STAT6 #9361).” for “immunoblotting.”

Sequence of MLK3 (Q16584 whole entry): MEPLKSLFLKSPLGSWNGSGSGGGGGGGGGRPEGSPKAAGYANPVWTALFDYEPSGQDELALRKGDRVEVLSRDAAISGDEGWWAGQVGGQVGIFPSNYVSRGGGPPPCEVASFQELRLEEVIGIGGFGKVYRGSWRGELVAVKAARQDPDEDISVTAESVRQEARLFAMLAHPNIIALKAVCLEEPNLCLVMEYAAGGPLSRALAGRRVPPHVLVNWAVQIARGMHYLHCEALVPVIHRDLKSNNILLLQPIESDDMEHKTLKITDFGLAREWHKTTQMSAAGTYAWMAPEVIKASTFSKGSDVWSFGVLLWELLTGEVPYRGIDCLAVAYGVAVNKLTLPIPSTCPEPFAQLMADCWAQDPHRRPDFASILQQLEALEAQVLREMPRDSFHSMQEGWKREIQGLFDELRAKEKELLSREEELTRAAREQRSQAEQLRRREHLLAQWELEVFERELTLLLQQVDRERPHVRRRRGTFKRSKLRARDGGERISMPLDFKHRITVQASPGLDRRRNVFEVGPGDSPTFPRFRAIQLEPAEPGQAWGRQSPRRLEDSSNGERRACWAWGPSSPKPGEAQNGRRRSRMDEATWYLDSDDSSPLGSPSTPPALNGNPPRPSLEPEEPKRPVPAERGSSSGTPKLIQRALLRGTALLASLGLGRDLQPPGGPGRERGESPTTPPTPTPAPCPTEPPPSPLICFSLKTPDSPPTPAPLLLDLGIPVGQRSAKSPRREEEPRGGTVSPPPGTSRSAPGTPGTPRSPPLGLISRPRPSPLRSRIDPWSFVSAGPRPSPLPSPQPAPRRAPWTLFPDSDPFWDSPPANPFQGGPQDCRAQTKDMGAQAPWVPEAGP
Sequence of MAPKAP-K2 (P49137 whole entry): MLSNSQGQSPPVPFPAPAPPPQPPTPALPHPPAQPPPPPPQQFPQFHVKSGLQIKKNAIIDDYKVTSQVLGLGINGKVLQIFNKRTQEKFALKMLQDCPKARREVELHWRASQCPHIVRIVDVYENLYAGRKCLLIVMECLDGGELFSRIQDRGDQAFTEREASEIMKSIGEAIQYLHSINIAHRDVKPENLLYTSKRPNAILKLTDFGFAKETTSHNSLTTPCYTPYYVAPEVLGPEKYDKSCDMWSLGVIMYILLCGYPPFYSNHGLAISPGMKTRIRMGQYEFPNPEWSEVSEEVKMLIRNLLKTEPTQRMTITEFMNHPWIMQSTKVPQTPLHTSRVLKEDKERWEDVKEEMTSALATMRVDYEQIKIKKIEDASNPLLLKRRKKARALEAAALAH
Sequence of TrkA (P04629 33-796): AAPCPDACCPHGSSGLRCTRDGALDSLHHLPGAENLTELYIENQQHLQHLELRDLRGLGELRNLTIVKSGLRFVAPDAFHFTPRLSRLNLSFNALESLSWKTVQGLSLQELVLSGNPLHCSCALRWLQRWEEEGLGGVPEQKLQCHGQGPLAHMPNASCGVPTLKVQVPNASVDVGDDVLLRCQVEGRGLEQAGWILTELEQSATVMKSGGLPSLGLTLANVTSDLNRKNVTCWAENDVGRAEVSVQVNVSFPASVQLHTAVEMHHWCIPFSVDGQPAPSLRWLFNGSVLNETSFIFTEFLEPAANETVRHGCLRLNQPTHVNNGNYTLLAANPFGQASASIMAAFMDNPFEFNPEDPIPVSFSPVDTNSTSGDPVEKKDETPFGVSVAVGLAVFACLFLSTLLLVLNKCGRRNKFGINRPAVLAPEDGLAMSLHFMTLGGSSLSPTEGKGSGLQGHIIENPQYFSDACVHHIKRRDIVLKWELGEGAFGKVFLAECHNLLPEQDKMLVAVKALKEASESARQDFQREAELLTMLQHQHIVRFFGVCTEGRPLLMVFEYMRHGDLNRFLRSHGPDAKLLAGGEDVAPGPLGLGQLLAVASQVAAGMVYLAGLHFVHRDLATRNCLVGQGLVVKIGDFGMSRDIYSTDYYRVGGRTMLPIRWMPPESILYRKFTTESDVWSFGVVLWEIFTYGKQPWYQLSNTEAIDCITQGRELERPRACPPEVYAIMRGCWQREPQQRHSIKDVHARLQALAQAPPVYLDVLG
Sequence of RSK2 (P51812 whole entry): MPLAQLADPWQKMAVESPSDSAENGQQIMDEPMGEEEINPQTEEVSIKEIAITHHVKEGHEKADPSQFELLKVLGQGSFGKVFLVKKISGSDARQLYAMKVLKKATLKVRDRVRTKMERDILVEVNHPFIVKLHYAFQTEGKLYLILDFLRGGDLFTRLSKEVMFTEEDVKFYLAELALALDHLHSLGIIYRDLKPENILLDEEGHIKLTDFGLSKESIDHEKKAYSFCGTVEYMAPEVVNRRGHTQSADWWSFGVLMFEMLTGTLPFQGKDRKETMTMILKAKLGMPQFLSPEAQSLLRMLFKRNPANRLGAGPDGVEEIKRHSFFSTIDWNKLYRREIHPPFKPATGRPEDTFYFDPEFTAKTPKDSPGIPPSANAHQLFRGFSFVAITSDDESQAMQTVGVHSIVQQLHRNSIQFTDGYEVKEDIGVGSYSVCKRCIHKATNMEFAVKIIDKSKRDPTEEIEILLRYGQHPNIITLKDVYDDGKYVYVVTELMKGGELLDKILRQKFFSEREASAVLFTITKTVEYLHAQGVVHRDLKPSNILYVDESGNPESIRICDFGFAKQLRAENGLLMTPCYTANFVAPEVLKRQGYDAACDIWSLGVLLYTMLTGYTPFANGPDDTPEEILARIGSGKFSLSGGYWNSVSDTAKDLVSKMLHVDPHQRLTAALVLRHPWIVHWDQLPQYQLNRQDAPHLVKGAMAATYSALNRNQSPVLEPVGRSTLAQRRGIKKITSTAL
Sequence of ERK1 (P27361 whole entry): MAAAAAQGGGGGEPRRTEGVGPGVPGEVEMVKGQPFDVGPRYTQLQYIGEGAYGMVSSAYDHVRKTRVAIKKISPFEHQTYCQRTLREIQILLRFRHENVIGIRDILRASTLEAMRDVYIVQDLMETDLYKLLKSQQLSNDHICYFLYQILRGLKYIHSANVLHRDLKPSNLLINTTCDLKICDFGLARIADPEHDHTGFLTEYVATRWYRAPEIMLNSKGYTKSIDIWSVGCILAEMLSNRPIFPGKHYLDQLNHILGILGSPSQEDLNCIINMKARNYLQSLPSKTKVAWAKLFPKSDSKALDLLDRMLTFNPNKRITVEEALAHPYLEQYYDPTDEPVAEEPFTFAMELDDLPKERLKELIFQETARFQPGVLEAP
Sequence of HIPK2 (Q9H2X6 whole entry): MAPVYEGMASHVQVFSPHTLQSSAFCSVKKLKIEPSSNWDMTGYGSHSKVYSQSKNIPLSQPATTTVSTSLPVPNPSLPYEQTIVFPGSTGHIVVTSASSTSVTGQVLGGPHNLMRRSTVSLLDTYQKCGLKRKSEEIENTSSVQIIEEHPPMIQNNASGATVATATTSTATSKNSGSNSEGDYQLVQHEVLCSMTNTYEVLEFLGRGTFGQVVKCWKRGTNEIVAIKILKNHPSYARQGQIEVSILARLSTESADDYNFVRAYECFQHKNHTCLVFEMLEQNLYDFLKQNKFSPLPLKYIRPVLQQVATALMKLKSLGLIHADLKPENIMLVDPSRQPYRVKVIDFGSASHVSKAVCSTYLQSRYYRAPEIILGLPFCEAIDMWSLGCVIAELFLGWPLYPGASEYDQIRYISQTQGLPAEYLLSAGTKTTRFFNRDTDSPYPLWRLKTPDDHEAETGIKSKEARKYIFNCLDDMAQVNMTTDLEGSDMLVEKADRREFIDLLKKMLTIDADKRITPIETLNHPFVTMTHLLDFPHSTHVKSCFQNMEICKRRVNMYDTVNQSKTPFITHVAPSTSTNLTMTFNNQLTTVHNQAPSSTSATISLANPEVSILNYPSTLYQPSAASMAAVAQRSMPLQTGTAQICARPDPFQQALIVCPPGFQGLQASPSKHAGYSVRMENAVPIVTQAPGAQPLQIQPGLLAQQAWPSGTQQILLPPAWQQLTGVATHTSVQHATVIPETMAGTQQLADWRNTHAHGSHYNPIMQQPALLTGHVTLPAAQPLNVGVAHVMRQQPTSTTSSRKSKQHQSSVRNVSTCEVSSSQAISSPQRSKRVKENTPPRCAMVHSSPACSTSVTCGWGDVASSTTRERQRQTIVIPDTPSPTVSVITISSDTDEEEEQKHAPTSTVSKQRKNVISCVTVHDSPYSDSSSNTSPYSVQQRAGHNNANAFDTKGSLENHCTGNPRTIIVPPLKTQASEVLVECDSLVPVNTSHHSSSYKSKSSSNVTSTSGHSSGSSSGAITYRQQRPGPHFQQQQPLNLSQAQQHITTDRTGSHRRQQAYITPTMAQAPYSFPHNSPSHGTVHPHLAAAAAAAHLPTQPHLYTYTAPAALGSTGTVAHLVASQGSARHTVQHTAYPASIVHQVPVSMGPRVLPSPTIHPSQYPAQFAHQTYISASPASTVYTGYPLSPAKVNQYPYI

Question: What does the source list for `C=CC(=O)Nc1cccc(CNc2nc(Nc3ccc(N4CCOCC4)cc3)ncc2Cl)c1` [TL8-52]?
Answer: activity remaining in the presence of the inhibitor: RSK1 (RSK1): 60; activity remaining in the presence of the inhibitor: ULK2 (ULK2): 92; activity remaining in the presence of the inhibitor: PKCz (PKCz): 98; activity remaining in the presence of the inhibitor: PIM3 (PIM3): 90; activity remaining in the presence of the inhibitor: CLK2 (CLK2): 29; remaining activity at 1 µM (PKBb): 107%; activity remaining in the presence of the inhibitor: PINK (PINK): 110; activity remaining in the presence of the inhibitor: HIPK1 (HIPK1): 96; activity remaining in the presence of the inhibitor: ERK1 (ERK1): 94; activity remaining in the presence of the inhibitor: TTBK2 (TTBK2): 106; activity remaining in the presence of the inhibitor: MAPKAP-K2 (MAPKAP-K2): 97; block of IL-4 induced STAT6 phosphorylation in spleenocytes [1]: able to block; activity remaining in the presence of the inhibitor: PDGFRA (PDGFRA): 35; activity remaining in the presence of the inhibitor: MLK3 (MLK3): 3; activity remaining in the presence of the inhibitor: RSK2 (RSK2): 53; activity remaining in the presence of the inhibitor: TrkA (TrkA): 23; activity remaining in the presence of the inhibitor: HIPK2 (HIPK2): 97; effect on IL-10 signaling (IL-10 induced STAT3 phosphorylation) [2]: no effect; also recorded: did not block

Question: With `C=CC(=O)Nc1cccc(CNc2nc(Nc3ccc(N4CCN(C)CC4)cc3OC)ncc2Cl)c1` [TL6-144] as the compound, how does the “activity remaining in the presence of the inhibitor: RSK1” value (RSK1) read?
Answer: 61

Question: What about the “activity remaining in the presence of the inhibitor: ULK2” value (ULK2) of the same compound?
Answer: 63

Question: And the “activity remaining in the presence of the inhibitor: PKCz” value (PKCz)?
Answer: 88

Question: What about the “activity remaining in the presence of the inhibitor: PIM3” value (PIM3) of the same compound?
Answer: 100

Question: What about the “activity remaining in the presence of the inhibitor: CLK2” value (CLK2) of the same compound?
Answer: 62

Question: And the remaining activity at 1 µM (PKBb)?
Answer: 107%

Question: And the “activity remaining in the presence of the inhibitor: PINK” value (PINK)?
Answer: 107

Question: What about the “activity remaining in the presence of the inhibitor: HIPK1” value (HIPK1) of the same compound?
Answer: 79

Question: And the “activity remaining in the presence of the inhibitor: ERK1” value (ERK1)?
Answer: 94

Question: What about the “activity remaining in the presence of the inhibitor: TTBK2” value (TTBK2) of the same compound?
Answer: 94

Question: What about the “activity remaining in the presence of the inhibitor: MAPKAP-K2” value (MAPKAP-K2) of the same compound?
Answer: 103

Question: And the “activity remaining in the presence of the inhibitor: PDGFRA” value (PDGFRA)?
Answer: 67

Question: And the “activity remaining in the presence of the inhibitor: MLK3” value (MLK3)?
Answer: 31

Question: And the “activity remaining in the presence of the inhibitor: RSK2” value (RSK2)?
Answer: 73

Question: And the “activity remaining in the presence of the inhibitor: TrkA” value (TrkA)?
Answer: 59

Question: And the “activity remaining in the presence of the inhibitor: HIPK2” value (HIPK2)?
Answer: 87

Question: `C=CC(=O)N1C[C@H](Nc2ncnc3[nH]ccc23)CC[C@@H]1C` [PF-06651600, 1-((2S,5R)-5-((7H-Pyrrolo[2,3-d]pyrimidin-4-yl)amino)-2-methylpiperidin-1-yl)prop-2-en-1-one, reference compound] was tested. Which “block of IL-4 induced STAT6 phosphorylation in spleenocytes” value [1] did it give?
Answer: able to block

Question: What about the “effect on IL-10 signaling (IL-10 induced STAT3 phosphorylation)” value [2] of the same compound?
Answer: did not block

Question: What about the “effect on IL-10 signaling (IL-10 induced STAT3 phosphorylation)” value ([2]; listed as PF-0665160) of the same compound?
Answer: no effect
